Results published in doi:10.1101/2025.01.06.631558v1 (biorxiv, 2025).

Assays:
CbPrpB [1] = target: T1, CbPrpB (Coxiella burnetii, UniProt Q83DG5)
T1 construct: gene prpB

CbPrpB [2] = target: T1, CbPrpB; assay: biochemical

T1 sequence (Q83DG5 1-290): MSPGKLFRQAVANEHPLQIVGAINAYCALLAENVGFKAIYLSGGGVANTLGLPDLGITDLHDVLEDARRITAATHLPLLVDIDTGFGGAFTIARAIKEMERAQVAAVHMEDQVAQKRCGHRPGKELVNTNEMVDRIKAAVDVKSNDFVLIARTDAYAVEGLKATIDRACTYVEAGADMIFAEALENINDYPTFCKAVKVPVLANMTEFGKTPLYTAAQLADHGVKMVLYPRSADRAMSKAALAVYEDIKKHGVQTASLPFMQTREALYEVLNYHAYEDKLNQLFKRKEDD

Row | Compound | X-ray crystal structure, soak (CbPrpB [1]) | Ki (CbPrpB [2]) [mM]
1 | O=C(O)CCC(=O)O [succinate] | We first determined the structure of product-bound CbPrpB | –
2 | O=C(O)C[C@H](C(=O)O)[C@@H](O)C(=O)O [isocitrate] | – | 6 ± 2
3 | CC(=O)C(=O)O [pyruvate] | We first determined the structure of product-bound CbPrpB | –
